Data as given in patent EP0421199A2, “(+)-(2-Hydroxy)-2-adamantyl)-1-imidazolyl-3-tolyl-methane and its salts, process for its preparation, medicine containing this compound and its use” (HOECHST AKTIENGESELLSCHAFT, priority 1989, dated 1991).
pIC50: −log10 of the molar value. Values joined by “and” are separate entries in the source; they are usually repeats but may differ in a detail not shown here. Identical values can stand only once. Like-named read-outs stand apart in the source and are kept apart here.

Assays:
Yohimbin-Toxizität = experiment: Potentiation of yohimbine toxicity in mice (Methode 2); assay type: in vivo, Maus; details: Methode 2, mouse; for LD50, mg/kg p.o.: 1 h before yohimbine hydrochloride 20 mg/kg s.c., deaths after 18 h
Experimental: Die Toxizität von Yohimbin, einem Blocker präsynaptischer alpha-Rezeptoren, wird durch Antidepressiva potenziert (Literatur R.M. Quinton, Brit. J. Pharmac. 21 , 55-56 (1963)). Männliche Mäuse, NMRI-Stamm, 20-22 g, wurden in Versuchsgruppen zu n = 10 zugeordnet. Das Prüfpräparat wurde in 1 %igem wäßrigen Tylose@-Schleim suspendiert und im Volumen 10 ml/kg oral gegeben. Kontrollen erhielten nur das Vehikel.
Nach einer Vorbehandlungszeit von 1 Stunde erhielten alle Tiere eine allein nicht toxische Dosis von Yohimbin-Hydrochlorid, 20 mg/kg subkutan. Die verstorbenen Tiere wurden 18 Stunden nach dieser Behandlung ermittelt. (Berechnung der LDso mit Probit-Analyse).

Stereotypien = experiment: Induction of stereotypies in rats (Methode 3); assay type: in vivo; details: Methode 3, rat, p.o.; dose up to which no stereotypies were seen
From the text: Die Versuche wurden an Wistar-Ratten, männlich, 130-140 g durchgeführt. Die Stereotypien wurden in den ersten beiden Stunden nach Substanzgabe in 15-Minuten-Intervallen beurteilt, danach bis zur 6. Stunde in halbstündigen Intervallen. Die folgende Skala wurde benutzt.
Die Punktzahlen wurden errechnet alß Gesamtzahl pro 6 Stunden, dividiert durch die Zahl der Beobachtungen.
Der EDso-Wert ist die Dosis, bei der die Hälfte der maximal möglichen Punktzahl (5 Punkte multipliziert mit der Zahl der Beobachtungen) erreicht wird.

Tetrabenazin-Ptosis = experiment: Effect on tetrabenazine ptosis (TBZ method, Methode 1); assay type: in vivo, Maus; details: for ED50: Mus musculus
Experimental: Sechs männl. Tieren wird die entsprechende Menge eines Homogenats der jeweiligen Substanz in wäßriger Carboxymethylcellulose oder Methyl-hydroxyethylcellulose 30 Min. vor der Behandlung mit Tetrabenazin (40 mg/kg intraperitoneal) mit Schlundsonde gefüttert. […]

[1] = system: Aufnahme von 14C-Noradrenalin in Synaptosomen; experiment: Inhibition of noradrenaline reuptake in synaptosomes (Methode 4); assay type: biochemical, Ratte; details: 50 % inhibition of 14C-noradrenaline uptake, 37 °C, 4 min
Experimental: Synaptosomen aus Rattenhirn werden nach der Methode von Whittaker (Handbook of Neurochemistry 2 , 327-364, Editor A. Lajtha; London and New York, 1969) isoliert und die Monoamin-Aufnahme nach der Methode von Schacht und Heptner gemessen (Biochemical Pharmac. 23 , 3413-3422). Die 14C Noradrenalin-Aufnahme wurde in einem Krebs-Henseleit-Bikarbonatpuffer pH 7,4, der 11 Millimol Glucose enthielt, gemessen. 2,5 ml der Synaptosomen-Suspension wurden mit markiertem Noradrenalin bei 37 ° C inkubiert in Gegenwart von oder ohne Testsubstanz. Die Inkubationszeit betrug 4 Minuten. Die weitere Aufnahme wurde dann durch Abkühlen mit Eis gestoppt. Um nichtspezifische Adsorptionen auszuschließen, wurden Kontrollproben bei 0 ° C unter sonst gleichen Bedingungen inkubiert.
Die aufgenommenen Noradrenalinmengen wurden mit Hilfe der Membranfiltrationstechnik mit einem Millipore Sampling Manifold mit Cellulosenitratfiltern von 25 mm Durchmesser und 0,6 Mikrometer Porengröße gemessen. Die Synaptosomen wurden unter vermindertem Druck gesammelt und die Radioaktivität in einem Packard-Tricarb-Scintillationszähler bestimmt. Die Menge an angesammeltem Noradrenalin wurde angegeben als Prozent Radioaktivität, die zur Inkubationsmischung zugesetzt wurde.
Die ICso-Werte (inhibitory concentration) der nachstehenden Tabellen geben die Konzentrationen der Testsubstanzen an, welche die Aufnahme von ^14C-Noradrenalin zu 50 % hemmen.

[2] = system: Tiermodelle, prädiktiv für antidepressive Wirkung beim Menschen; experiment: General pharmacological testing in animal models predictive of antidepressant action in man; assay type: in vivo; details: result in words
From the text: Bei der pharmakologischen Untersuchung des (+)-Enantiomeren der Verbindung der Formel I wurden unerwartet starke Wirkungen dieser Substanz in Tiermodellen, die als prädiktiv für antidepressive Wirkung beim Menschen gelten, gefunden.
Die pharmakologischen Prüfungen wurden mit bekannten Modellen, die als prädiktiv für antidepressive Wirkung beim Menschen gelten, durchgeführt. Das sind beispielsweise: die Beeinflussung der Tetrabenazin-Ptosis bei der Maus und die Potenzierung der Yohimbin-Toxizität bei Mäusen. Als weiteres Beurteilungskriterium wurde beispielsweise die Prüfung der Auslösung von Stereotypien an Ratten herangezogen.

[3] = system: Tiermodelle, prädiktiv für antidepressive Wirkung beim Menschen; details: as named in Deutsche Patentanmeldung P 36 28 545.5; cited from earlier work
[4] = read-out: ED50, mg/kg p.o. (Vertrauensgrenzen), Methode 1, mouse, 30 min before tetrabenazine 40 mg/kg i.p., confidence limits in brackets, repeated determinations
[5] = Methode 1, mouse, p.o., 30 min before tetrabenazine 40 mg/kg i.p., confidence limits in brackets, repeated determinations, read-out: ED50, mg/kg p.o. (Vertrauensgrenzen)
[6] = Methode 1, mouse, 30 min before tetrabenazine 40 mg/kg i.p., confidence limits in brackets, repeated determinations

SMILES	LD50, mg/kg p.o. (Yohimbin-Toxizität)	keine Stereotypien bis (Stereotypien)	ED50 (Tetrabenazin-Ptosis; [4])	ED50; mg/kg p.o. (Vertrauensgrenzen) (Tetrabenazin-Ptosis; [6])	also measured
OC1(C(c2cccc(Cl)c2)n2ccnc2)C2CC3CC(C2)CC1C3 (stereo not drawn)	4,4 mg/kg	> 300 mg/kg	–	–	–
COc1ccc(C(n2ccnc2)C2(O)C3CC4CC(C3)CC2C4)cc1OC (stereo not drawn)	3,0 mg/kg	–	3 mg/kg	–	–
OC1(C(c2ccc3ccccc3c2)n2ccnc2)C2CC3CC(C2)CC1C3 (stereo not drawn)	3,2 mg/kg	–	3 mg/kg	–	–
OC(C(c1cccc(Cl)c1)n1ccnc1)C12CC3CC(CC(C3)C1)C2 (stereo not drawn)	8,5 mg/kg	> 30 mg/kg	–	–	ED50 (Tetrabenazin-Ptosis; [5]): 3.7 mg/kg
CC(C)(C)C(O)C(c1ccc(-c2ccccc2)cc1)n1ccnc1 (stereo not drawn)	5,3 mg/kg	> 30 mg/kg	–	–	ED50 (Tetrabenazin-Ptosis; [5]): 3 mg/kg; pIC50 [1]: < 6.00
CCCC(C)(C)C(O)C(c1ccc(-c2ccccc2)cc1)n1ccnc1 (stereo not drawn)	24,5 mg/kg	keine Stereotypien	–	–	–
C=CCC1(C(O)C(c2cccc(Cl)c2)n2ccnc2)CCCCC1 (stereo not drawn)	–	–	3.9 mg/kg	6,1 (0,5-72,9) mg/kg	–
OC1(C(c2cccc(Cl)c2)n2ccnc2)C2CC3CC(C2)CC1C3 (single isomer, unassigned)	8,5 (0,5-130) mg/kg	> 30 mg/kg	2.9 mg/kg	2,3 (0,9-5,8) mg/kg	LD50, mg/kg p.o. (Yohimbin-Toxizität; 1080 min): 4,6 mg/kg; pIC50 [1]: 6.92
OC1(C(c2cccc(Cl)c2)n2ccnc2)C2CC3CC(C2)CC1C3 (single isomer, unassigned; (+)) [(+)-(2-Hydroxy-2-adamantyl)-1-imidazolyl-(3-chlorphenyl)-methan]	–	–	–	–	pharmakologische Wirkung [2]: geringere Wirkung
Cc1cccc(C(n2ccnc2)C2(O)C3CC4CC(C3)CC2C4)c1 (single isomer, unassigned; (+)) [Beispiel 1]	2,9 (0,2 - 41,3) mg/kg	keine Stereotypien bis 100 mg/kg p.o.	1.3 mg/kg and 1.75 mg/kg	1,2 (0,3 - 3,5) mg/kg and 1,9 (1,0 - 3,5) mg/kg and 1,4 (0,7 - 2,7) mg/kg	LD50 umgerechnet (F:O,68) auf äquimolare Menge Base (nach Beispiel 2) (Yohimbin-Toxizität; p.o., tested as hydrogentartrate, converted to equimolar amount of base, 1080 min): 2,0 (0,1 - 28,1) mg/kg
Cc1cccc(C(n2ccnc2)C2(O)C3CC4CC(C3)CC2C4)c1 (single isomer, unassigned; enantiomere) [(-)-Enantiomere der Verbindung I]	–	–	–	–	pharmakologische Wirkung [2]: pharmakologisch unwirksam
Cc1cccc(C(n2ccnc2)C2(O)C3CC4CC(C3)CC2C4)c1 (stereo not drawn) [(2-Hydroxy-2-adamantyl)-1-imidazolyl-3-tolyl-methan]	–	–	–	–	antidepressive Wirkung in prädiktiven Tiermodellen [3]: antidepressiv wirksam
Cc1cccc(C(n2ccnc2)C2(O)C3CC4CC(C3)CC2C4)c1 (stereo not drawn) [drawing 18]	7,1 mg/kg	> 30 mg/kg	1.5 mg/kg	1,7 (0,5-5,9) mg/kg	pIC50 [1]: 6.92
